Format in all cases: cell-based, human
For assay [1], the system named is HTT mRNA. Nature of the assay: Splicing RT-qPCR assay, HTT canonical (CJ) and alternative (AJ) junction mRNA. The settings on record: Homo sapiens, A673 or K562 cells, 24 hours compound treatment; for pIC50: 24 h, read-out: HTT CJ (IC50, decrease in canonical junction mRNA); for AC50: read-out: HTT AJ (AC50, increase in alternative junction mRNA). The method, boiled down:
(§1)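 Read-out is the abundance of canonical-junction versus new alternative-exon-junction mRNA, determined by real-time qPCR after cDNA synthesis and normalized to a housekeeping gene. It is measured in A673 or K562 cells exposed to compounds for 24 h, top dose 10 uM.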
(In qPCR the cycle at which signal appears reflects the starting amount.)

A further assay has as its system MYB mRNA. Kind of assay: Splicing RT-qPCR assay, MYB canonical (CJ) and alternative (AJ) junction mRNA. The conditions noted are these: Homo sapiens; for AC50: read-out: MYB AJ (AC50, increase in alternative junction mRNA). The essentials: as §1
Another assay deals with Target C mRNA. Kind of assay: Splicing RT-qPCR gene panel, Target C canonical junction (CJ) mRNA. The conditions noted are these: Homo sapiens, Tables 4A/4B, read-out: Target C (IC50, decrease in CJ mRNA, gene panel). The protocol: (§2) Compounds described herein were used to modulate RNA transcript abundance in cells. The expression of a target mRNA was measured by detecting the formation of an exon-exon junction in the canonical transcript (CJ). A compound mediated exon-inclusion event was detected by observing an increase in formation of a new junction with an alternative exon (AJ). Real-time qPCR assays were used to detect these splicing switches and interrogate the potency of various compounds towards different target genes. A high-throughput real time quantitative PCR (RT-qPCR) assay was developed to measure these two isoforms of the mRNA (CJ and AJ) for exemplary genes, such as HTT, SMN2, and MYB, together with a control housekeeping gene, GAPDH or GUSB or PPIA, used for normalization. Briefly, the A673 or K562 cell line was treated with various compounds described herein (e.g., compounds of Formula (I)). After treatment, the levels of the HTT, MYB, or SMN2 mRNA targets were determined from each sample of cell lysate by cDNA synthesis followed by qPCR.
(§3) The A673 cell line was cultured in DMEM with 10% FBS. Cells were diluted with full growth media and plated in a 96-well plate (15,000 cells in 100 ul media per well). The plate was incubated at 37° C. with 5% CO2 for 24 hours to allow cells to adhere. An 11-point 3-fold serial dilution of the compounds was made in DMSO then diluted in media in an intermediate plate. Compounds were transferred from the intermediate plate to the cell plate with the top dose at a final concentration of 10 uM in the well. Final DMSO concentration was kept at or below 0.25%. The cell plate was returned to the incubator at 37° C. with 5% CO2 for an additional 24 hours.
(§4) The K562 cell line was cultured in IMDM with 10% FBS. For K562, cells were diluted with full growth media and plated in either a 96-well plate (50,000 cells in 50 uL media per well) or a 384-well plate (8,000-40,000 cells in 45 uL media per well). An 11-point 3-fold serial dilution of the compounds were made in DMSO then diluted in media in an intermediate plate. Compound was transferred from the intermediate plate to the cell plate with the top dose at a final concentration of 10 uM in the well. Final DMSO concentration was kept at or below 0.25%. Final volume was 100 uL for 96-well plate and 50 uL for 384-well plate. The cell plate was then placed in an incubator at 37° C. with 5% CO2 for 24 hours.
(§5) The cells were then gently washed with 50 uL-100 uL cold PBS before proceeding to addition of lysis buffer. 30 uL-50 uL of room temperature lysis buffer with DNAse I (and optionally RNAsin) was added to each well. Cells were shaken/mixed thoroughly at room temperature for 5-10 minutes for lysis to take place and then 3 uL-5 uL of room temperature stop solution was added and wells were shaken/mixed again. After 2-5 minutes, the cell lysate plate was transferred to ice for RT-qPCR reaction setup. The lysates could also be frozen at −80° C. for later use.
(§6) In some cases, a direct lysis buffer was used. An appropriate volume of 3× lysis buffer (10 mM Tris, 150 mM NaCl, 1.5%-2.5% Igepal and 0.1-1 U/uL RNAsin, pH 7.4) was directly added to either K562 or A673 cells in media and mixed by pipetting 3 times. The plates were then incubated at room temperature with shaking/rocking for 20-50 minutes to allow for lysis to take place. After this time, the cell lysate plate was transferred to ice to set up for the RT-qPCR reactions. The lysates could also be frozen at −80° C. for later use.
(§7) To set up 10 uL RT-qPCR reactions, cell lysates were transferred to 384-well qPCR plates containing the master mix according to the table below. The plates were sealed, gently vortexed, and spun down before the run. The volumes were adjusted accordingly in some instances where the reaction was carried in 20 μL. The table below summarizes the components of the RT-qPCR reactions:
(§8) The RT-qPCR reaction was performed using a QuantStudio (ThermoFisher) under the following fast cycling conditions. […]

In assay [2] the test system is HTT mRNA. Kind of assay: Splicing RT-qPCR gene panel, HTT canonical junction (CJ) mRNA. The conditions noted are these: Homo sapiens, Tables 4A/4B, read-out: HTT (IC50, decrease in CJ mRNA, gene panel). On the procedure: as §2, §3, §4, §5, §6, §7, §8
Another assay has as its system SMN2 mRNA. Kind of assay: Splicing RT-qPCR gene panel, SMN2 canonical junction (CJ) mRNA. The conditions noted are these: Homo sapiens, Tables 4A/4B, read-out: SMN2 (IC50, decrease in CJ mRNA, gene panel). On the procedure: as §2, §3, §4, §5, §6, §7, §8
The mark [3] stands for this setting: 24 h, A673 or K562 cells, 24 hours compound treatment, RT-qPCR.
[4] abbreviates: 24 h, A673 or K562 cells, 24 hours compound treatment, RT-qPCR, read-out: MYB CJ (IC50, decrease in canonical junction mRNA).
[5] abbreviates: Tables 4A/4B, canonical junction qPCR panel, read-out: MYB (IC50, decrease in CJ mRNA, gene panel).

The source of these data is US20250154169A1, “COMPOUNDS AND METHODS FOR MODULATING SPLICING” (REMIX THERAPEUTICS INC., priority 2021, published 2025).

pIC50: −log10 of the molar value. Where two headings read alike, the source gives them in different places.

In general, pIC50 refers to the IC50 on a negative log10 scale, so that one unit is a factor of ten. A word on the AC50: it is the concentration at which the activity in the assay is half-maximal. In the case of `Cc1cn2cc(NC(=O)c3ccc(N4CC[C@@H](N(C)C)C4)c4cn(C)nc34)cc(F)c2n1` (single isomer, unassigned) [Compound 350, 4-[3-(dimethylamino)pyrrolidin-1-yl]-N-{8-fluoro-2-methylimidazo[1,2-a]pyridin-6-yl}-2-methylindazole-7-carboxamide], the pIC50 was 5.00 to 6.00 with HTT mRNA [1]; greater than 7.00 in the assay with MYB mRNA (setting [4]); greater than 7.00 in the assay on MYB mRNA (setting [5]); less than 5.00 in the assay with Target C mRNA; 5.00 to 6.00 in the assay with HTT mRNA [2]; greater than 7.00 in the assay with SMN2 mRNA. Besides, the values for the AC50 in the assay with HTT mRNA [1] and in the assay on MYB mRNA (setting [3]) were 1 to 10 µM and less than 0.1 µM, respectively.
As for `Cc1cn2cc(NC(=O)c3ccc(N4CC[C@H](N(C)C)C4)c4cn(C)nc34)cc(F)c2n1` (single isomer, unassigned) [Compound 351, 4-[3-(dimethylamino)pyrrolidin-1-yl]-N-{8-fluoro-2-methylimidazo[1,2-a]pyridin-6-yl}-2-methylindazole-7-carboxamide], the pIC50 with HTT mRNA [1] is 5.00 to 6.00; in the assay on MYB mRNA (setting [4]), greater than 7.00; in the assay with MYB mRNA (setting [5]), greater than 7.00; with Target C mRNA it was less than 5.00; in the assay with HTT mRNA [2], 5.00 to 6.00; with SMN2 mRNA, greater than 7.00. Further, the AC50 is 1 to 10 µM in the assay with HTT mRNA [1] and less than 0.1 µM with MYB mRNA (setting [3]).
In the case of `Cc1cn2cc(NC(=O)c3ccc(N4CCN[C@@H](C)C4)c4cn(C)nc34)cc(F)c2n1` (single isomer, unassigned) [Compound 352], the pIC50 in the assay on HTT mRNA [1] was 6.00 to 7.00; with MYB mRNA (setting [4]), greater than 7.00; with MYB mRNA (setting [5]), greater than 7.00; in the assay on Target C mRNA, 5.00 to 6.00; in the assay on HTT mRNA [2] it was 6.00 to 7.00; with SMN2 mRNA it was greater than 7.00. The figures for the AC50 with HTT mRNA [1] and in the assay on MYB mRNA (setting [3]) were 0.1 to 1 µM and less than 0.1 µM, respectively.
Take `Cc1cn2cc(NC(=O)c3ccc(N4CCN[C@H](C)C4)c4cn(C)nc34)cc(F)c2n1` (single isomer, unassigned) [Compound 353]: the pIC50 in the assay on HTT mRNA [1] was 6.00 to 7.00; in the assay on MYB mRNA (setting [4]), greater than 7.00; in the assay on MYB mRNA (setting [5]) it was greater than 7.00; with Target C mRNA, 5.00 to 6.00; in the assay on HTT mRNA [2], 6.00 to 7.00; with SMN2 mRNA, greater than 7.00. Also, the figures for the AC50 with HTT mRNA [1] and in the assay with MYB mRNA (setting [3]) were 0.1 to 1 µM and less than 0.1 µM, respectively.
With `CNC1CCN(c2ccc(C(=O)Nc3cc(F)c4nc(C)cn4c3)c3nn(C)cc23)C1` (stereo in doubt) [Compound 387, N-{8-fluoro-2-methylimidazo[1,2-a]pyridin-6-yl}-2-methyl-4-[(3R)-3-(methylamino)pyrrolidin-1-yl]indazole-7-carboxamide], the pIC50 is 5.00 to 6.00 with HTT mRNA [1]; greater than 7.00 with MYB mRNA (setting [4]); greater than 7.00 with MYB mRNA (setting [5]); less than 5.00 in the assay on Target C mRNA; 5.00 to 6.00 with HTT mRNA [2]; greater than 7.00 in the assay on SMN2 mRNA. The AC50 with HTT mRNA [1] was 1 to 10 µM; in the assay with MYB mRNA (setting [3]), less than 0.1 µM.
For the molecule `CNC1CCN(c2ccc(C(=O)Nc3cc(F)c4nc(C)cn4c3)c3nn(C)cc23)C1` (stereo in doubt) [Compound 388, (S)—N-(8-fluoro-2-methylimidazo[1,2-a]pyridin-6-yl)-2-methyl-4-(3-(methylamino)pyrrolidin-1-yl)-2H-indazole-7-carboxamide], the negative-log IC50 (pIC50) was 5.00 to 6.00 in the assay on HTT mRNA [1]; greater than 7.00 with MYB mRNA (setting [5]); less than 5.00 in the assay on Target C mRNA; less than 5.00 with HTT mRNA [2]; greater than 7.00 in the assay on SMN2 mRNA. Further, the AC50 in the assay on HTT mRNA [1] fell in the range of 1 to 10 µM.
As for `Cc1cn2cc(NC(=O)c3c(F)cc(N4CCC(N(C)C)C4)c4cn(C)nc34)cc(F)c2n1` (stereo in doubt) [Compound 463, 4-[(3R)-3-(dimethylamino)pyrrolidin-1-yl]-6-fluoro-N-{8-fluoro-2-methylimidazo[1,2-a]pyridin-6-yl}-2-methylindazole-7-carboxamide], the pIC50 in the assay on HTT mRNA [1] is 6.00 to 7.00; in the assay with MYB mRNA (setting [4]), greater than 7.00; in the assay on MYB mRNA (setting [5]), greater than 7.00; with Target C mRNA, less than 5.00; in the assay with HTT mRNA [2], 6.00 to 7.00; in the assay with SMN2 mRNA, greater than 7.00. The results for the AC50 with HTT mRNA [1] and with MYB mRNA (setting [3]) were 0.1 to 1 µM and less than 0.1 µM, respectively.
Take `Cc1cn2cc(N(C)C(=O)c3ccc(N4CCNCC4)c4cn(C)nc34)cc(F)c2n1` [Compound 386, N-{8-fluoro-2-methylimidazo[1,2-a]pyridin-6-yl}-N,2-dimethyl-4-(piperazin-1-yl) indazole-7-carboxamide]: the pIC50 in the assay on MYB mRNA (setting [5]), with Target C mRNA, in the assay on HTT mRNA [2] and with SMN2 mRNA was less than 5.00 in each case.
Regarding `Cc1cn2cc(NC(=O)c3ccc(N4CCC5(CC4)CCN5C)c4cn(C)nc34)cc(F)c2n1` [Compound 422, N-{8-fluoro-2-methylimidazo[1,2-a]pyridin-6-yl}-2-methyl-4-{1-methyl-1,7-diazaspiro[3.5]nonan-7-yl}indazole-7-carboxamide; bis(trifluoroacetic acid)], the pIC50 with MYB mRNA (setting [5]) was greater than 7.00; in the assay with Target C mRNA, 6.00 to 7.00; in the assay on HTT mRNA [2] it was greater than 7.00; in the assay on SMN2 mRNA it was greater than 7.00.
As to `CCOc1nc(NC(=O)c2ccc(N3CC[C@@H](NC)C3)c3cn(C)nc23)cn2cc(C)nc12` [Compound 433], the pIC50 in the assay on MYB mRNA (setting [5]) was 6.00 to 7.00; with Target C mRNA it was 5.00 to 6.00; in the assay with HTT mRNA [2] it was 5.00 to 6.00; in the assay with SMN2 mRNA it was greater than 7.00.
In the case of `C=C(C)n1cc2c(N3CCNCC3)ccc(C(=O)Nc3cc(F)c4nc(C)cn4c3)c2n1` [Compound 440, N-{8-fluoro-2-methylimidazo[1,2-a]pyridin-6-yl}-4-(piperazin-1-yl)-2-(prop-1-en-2-yl) indazole-7-carboxamide], the pIC50 in the assay on MYB mRNA (setting [5]) is greater than 7.00; in the assay on Target C mRNA, 5.00 to 6.00; in the assay with HTT mRNA [2] it was greater than 7.00; in the assay with SMN2 mRNA, greater than 7.00.
For `C/C=C/n1cc2c(N3CCNCC3)ccc(C(=O)Nc3cc(F)c4nc(C)cn4c3)c2n1` [Compound 445, N-{8-fluoro-2-methylimidazo[1,2-a]pyridin-6-yl}-4-(piperazin-1-yl)-2-[(1E)-prop-1-en-1-yl]indazole-7-carboxamide], the pIC50 was greater than 7.00 with MYB mRNA (setting [5]), 6.00 to 7.00 with Target C mRNA, greater than 7.00 with HTT mRNA [2] and greater than 7.00 in the assay on SMN2 mRNA.
Take `CCNC1CCN(c2cc(F)c(C(=O)Nc3cn4cc(C)nc4c(F)c3OC)c3nn(C)cc23)CC1` [Compound 471]: the pIC50 in the assay with MYB mRNA (setting [5]), with Target C mRNA, in the assay on HTT mRNA [2] and in the assay with SMN2 mRNA was greater than 7.00 each time.
